Measured values published in patent publication US20200369667A1, “HETEROCYCLIC COMPOUNDS AS PRMT5 INHIBITORS” (ANGEX PHARMACEUTICAL, INC., priority 2017, published 2020).

Molecular target: PRMT5:MEP50 (Homo sapiens, UniProt O14744)
Experiment: PRMT5:MEP50 Flashplate Assay
Assay type: biochemical
Settings: PRMT5:MEP50 inhibitory activity, 3H-SAM FlashPlate, class symbol
Protocol: Ten-point curves of inhibitor compounds were made using serial threefold dilutions in DMSO (the final top concentration of compound was 10 μM, 1% DMSO). Reaction mixture consisting of 50 mM Tris-HCl (pH 8.5), 0.002% Tween20, 0.005% BSA (Bovine Serum Albumin), 1 mM TCEP, and 1% DMSO. Substrates are freshly prepared in reaction buffer. PRMT5:MEP50 was then added into substrate solution and mixed gently. Inhibitor compound was then added and incubated for 30 min at room temperature. ^3H-SAM was added to initiate the reaction. Reactions were incubated for 2 h at room temperature and quenched with 0.5 mM SAM (S-adenosyl-L-Methionine) in assay buffer. An aliquot of the reaction mix was transferred to a streptavidin-coated 384-well FlashPlate (PerkinElmer). After an incubation time of 1 h, the plate was washed and then read on a TopCount (PerkinElmer) to measure the amount of tritium incorporated into the peptide substrate. IC50 was calculated using conventional curve-fitting method.

Chain of PRMT5:MEP50 (O14744 whole entry, species assumed): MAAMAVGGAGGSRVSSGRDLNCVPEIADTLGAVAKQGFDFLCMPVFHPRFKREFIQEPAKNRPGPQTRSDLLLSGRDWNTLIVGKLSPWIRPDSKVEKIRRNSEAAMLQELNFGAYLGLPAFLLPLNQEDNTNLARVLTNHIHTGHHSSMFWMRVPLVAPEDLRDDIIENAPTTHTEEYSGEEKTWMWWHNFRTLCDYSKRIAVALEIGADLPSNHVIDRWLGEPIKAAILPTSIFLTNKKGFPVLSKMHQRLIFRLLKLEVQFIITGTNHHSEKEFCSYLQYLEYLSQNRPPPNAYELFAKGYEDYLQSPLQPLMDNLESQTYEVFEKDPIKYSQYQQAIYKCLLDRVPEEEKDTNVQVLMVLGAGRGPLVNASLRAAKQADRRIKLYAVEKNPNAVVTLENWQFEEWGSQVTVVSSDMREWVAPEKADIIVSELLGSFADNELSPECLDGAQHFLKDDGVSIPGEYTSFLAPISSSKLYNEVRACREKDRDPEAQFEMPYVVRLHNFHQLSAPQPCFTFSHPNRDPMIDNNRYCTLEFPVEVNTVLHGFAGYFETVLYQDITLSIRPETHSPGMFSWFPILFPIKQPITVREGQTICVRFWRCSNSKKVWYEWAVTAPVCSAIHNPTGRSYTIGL
Chain of PRMT5:MEP50 (Q9BQA1 whole entry partner, species assumed): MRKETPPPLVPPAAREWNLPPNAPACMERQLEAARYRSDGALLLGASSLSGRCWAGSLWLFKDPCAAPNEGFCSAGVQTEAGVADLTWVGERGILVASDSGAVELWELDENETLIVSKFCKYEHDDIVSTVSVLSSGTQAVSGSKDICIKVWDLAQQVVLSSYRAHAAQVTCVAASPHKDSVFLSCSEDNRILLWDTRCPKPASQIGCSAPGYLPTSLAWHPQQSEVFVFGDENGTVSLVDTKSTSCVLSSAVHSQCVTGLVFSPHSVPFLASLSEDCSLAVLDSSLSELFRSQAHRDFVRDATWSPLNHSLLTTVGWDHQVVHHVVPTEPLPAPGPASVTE

Row | IC50 [nM] | Structure (SMILES)
1 | < 1 | CN1C(N)=Nc2cc(CC[C@H]3C[C@@H](n4ccc5c(N)ncnc54)[C@H](O)[C@@H]3O)ccc2S1(=O)=O [Compound 1-14]
2 | < 1 | Nc1ncnc2c1ccn2[C@@H]1C[C@H](CCc2ccc3cc4c(nc3c2)NCCS4)[C@@H](O)[C@H]1O [Compound 1-13]
3 | < 1 | Cn1c(N)nc2cc(CC[C@H]3C[C@@H](n4ccc5c(N)ncnc54)[C@H](O)[C@@H]3O)ccc2c1=O [Compound 1-7, 2-amino-7-(2-((1S,2R,3S,4R)-4-(4-amino-7H-pyrrolo[2,3-d]pyrimidin-7-yl)-2,3-dihydroxycyclopentyl)ethyl)-3-methylquinazolin-4(3H)-one]
4 | < 1 | C[C@H]1COc2cc3ccc(CC[C@H]4C[C@@H](n5ccc6c(N)ncnc65)[C@H](O)[C@@H]4O)cc3nc2N1 [Compound 1-8, (1R,2S,3R,5S)-3-(4-amino-7H-pyrrolo[2,3-d]pyrimidine-7-yl)-5-(2-((S)-3-methyl-3,4-dihydro-2H-[1,4]oxazino[3,2-b]quinoline-7-yl)ethyl)cyclopentane-1,2-diol]
5 | < 1 | Nc1ncnc2c1ccn2[C@@H]1C[C@H](CCc2ccc3cc4c(nc3c2)NC(=O)CS4)[C@@H](O)[C@H]1O [Compound 4-3]
6 | 1 to 100 | CN1C(N)=Nc2cc(CC[C@H]3O[C@@H](n4ccc5c(N)ncnc54)[C@H](O)[C@@H]3O)ccc2S1(=O)=O [Compound 2-8]
7 | < 1 | C[C@H]1CNc2nc3cc(CC[C@H]4C[C@@H](n5ccc6c(N)ncnc65)[C@H](O)[C@@H]4O)ccc3cc2O1 [Compound 1-11]
8 | < 1 | C[C@@H]1COc2cc3ccc(CC[C@H]4C[C@@H](n5ccc6c(N)ncnc65)[C@H](O)[C@@H]4O)cc3nc2N1 [Compound 1-9]
9 | 1 to 100 | CC1(C)C(N)=Nc2cc(CC[C@H]3O[C@@H](n4ccc5c(N)ncnc54)[C@H](O)[C@@H]3O)ccc2S1(=O)=O [Compound 2-11]
10 | 1 to 100 | CC1(C)C(N)=Nc2cc(CC[C@H]3C[C@@H](n4ccc5c(N)ncnc54)[C@H](O)[C@@H]3O)ccc2S1(=O)=O [Compound 1-15]
11 | < 1 | Nc1ncnc2c1ccn2[C@@H]1C[C@H](CCc2ccc3cc4c(nc3c2)NC(=O)CO4)[C@@H](O)[C@H]1O [Compound 1-12]

More lines, now with the values behind:

Row | Structure (SMILES) | IC50 [nM]
12 | Nc1nc2cc(CCC[C@H]3C[C@@H](n4ccc5c(N)ncnc54)[C@H](O)[C@@H]3O)ccc2cc1Br [Compound 3-7] | 1 to 100
13 | CC1(C)Oc2ccc(CC[C@H]3C[C@@H](n4ccc5c(N)ncnc54)[C@H](O)[C@@H]3O)cc2N=C1N [Compound 1-16] | < 1
14 | CC1(C)Cn2c(nc3cc(CC[C@H]4C[C@@H](n5ccc6c(N)ncnc65)[C@H](O)[C@@H]4O)ccc3c2=O)N1 [Compound 1-18] | 1 to 100
15 | Nc1ncnc2c1ccn2[C@@H]1C[C@H](CCc2ccc3c(=O)n(C4CC4)c(N)nc3c2)[C@@H](O)[C@H]1O [Compound 1-17] | < 1
16 | CC1(C)Oc2ccc(CC[C@H]3O[C@@H](n4ccc5c(N)ncnc54)[C@H](O)[C@@H]3O)cc2N=C1N [Compound 2-12] | < 1
17 | C[C@@H]1CNc2nc3cc(CC[C@H]4O[C@@H](n5ccc6c(N)ncnc65)[C@H](O)[C@@H]4O)ccc3cc2O1 [Compound 2-9] | 1 to 100
18 | C[C@H]1CNc2nc3cc(CC[C@H]4O[C@@H](n5ccc6c(N)ncnc65)[C@H](O)[C@@H]4O)ccc3cc2O1 [Compound 2-10] | 1 to 100
19 | C[C@@H]1CNc2nc3cc(CC[C@H]4C[C@@H](n5ccc6c(N)ncnc65)[C@H](O)[C@@H]4O)ccc3cc2O1 [Compound 1-10] | < 1
